Measurements reported in patent US6057311A, “Benzodiazonine derivatives binding to cholecystokinin or gastrin receptors” (James Black Foundation Limited, priority 1996, dated 2000).

How the values were obtained:
CCKB receptor = molecular target: T1, CCKB receptor (Mus musculus, UniProt P56481); assay: radioligand binding assay at the CCKB receptor in mouse cortical membranes ([125I]-CCK8S); details: [125I]-CCK8S 200 pM, 150 min at 21±3° C.; for Ki: pH 7.2, read-out: pKi (Mouse cortex) (converted); for pKi (Mouse cortex): pH 7.2
T1 construct: The cortex was dissected, weighed and homogenised in 40 ml ice-cold buffer; tissue Charles River (animals); host or cells: cerebral cortex of male CD1 mice, membranes
T1 sequence (P56481 1-453): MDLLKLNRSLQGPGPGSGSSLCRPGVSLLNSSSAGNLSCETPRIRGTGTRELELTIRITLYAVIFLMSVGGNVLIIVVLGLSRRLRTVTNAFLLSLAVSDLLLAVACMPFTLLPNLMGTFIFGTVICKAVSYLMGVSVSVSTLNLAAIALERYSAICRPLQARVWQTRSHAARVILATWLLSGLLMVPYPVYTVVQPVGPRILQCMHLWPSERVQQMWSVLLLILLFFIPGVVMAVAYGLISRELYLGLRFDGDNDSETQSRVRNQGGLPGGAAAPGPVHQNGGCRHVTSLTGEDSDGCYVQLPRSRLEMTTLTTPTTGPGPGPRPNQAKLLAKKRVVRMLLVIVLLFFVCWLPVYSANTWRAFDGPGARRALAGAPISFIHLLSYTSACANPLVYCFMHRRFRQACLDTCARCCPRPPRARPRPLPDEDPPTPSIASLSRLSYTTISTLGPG
In short: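 Male CD1 mouse cortical membranes (2 mg/ml original wet weight) were incubated 150 min at 21±3 °C in HEPES buffer pH 7.2 (130 mM NaCl, 4.7 mM KCl, 5 mM MgCl2, 1 mM EDTA, bacitracin) with [125I]-CCK8S and competitor. Non-specific binding was defined with L-365,260; bound label was measured by GF/B filtration and gamma counting.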

CCKA = molecular target: T2, CCKA (Cavia porcellus, UniProt Q63931); assay: CCKA binding assay, guinea pig pancreas membranes ([125I]-CCK8(S)); details: [125I]-CCK8(S) 200 pM, 0.375 μM PD134,308, 150 min at 21±3° C.; for Ki: pH 7.2, read-out: pKi (Guinea pig pancreas) (converted); for pKi (Guinea pig pancreas): pH 7.2
T2 construct: The pancreatata were removed from male guinea-pigs; from tissue; host or cells: pancreas of male Dunkin Hartley guinea pigs, membranes
T2 sequence (Q63931 1-430): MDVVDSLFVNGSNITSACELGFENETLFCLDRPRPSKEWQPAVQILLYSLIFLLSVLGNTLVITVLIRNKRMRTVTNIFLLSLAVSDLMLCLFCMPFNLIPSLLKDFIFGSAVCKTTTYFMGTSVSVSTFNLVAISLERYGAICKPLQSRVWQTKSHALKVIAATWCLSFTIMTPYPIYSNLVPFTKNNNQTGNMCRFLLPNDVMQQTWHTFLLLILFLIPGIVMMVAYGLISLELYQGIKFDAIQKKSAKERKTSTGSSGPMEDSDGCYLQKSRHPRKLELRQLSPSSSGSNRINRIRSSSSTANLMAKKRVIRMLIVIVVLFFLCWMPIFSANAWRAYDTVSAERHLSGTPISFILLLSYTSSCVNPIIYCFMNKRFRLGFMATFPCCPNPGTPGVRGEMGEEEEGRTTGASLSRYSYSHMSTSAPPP
In short: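 Guinea-pig pancreatic membranes (1 mg/ml original wet weight, containing 0.375 μM PD134,308) were incubated 150 min at 21±3 °C in HEPES pH 7.2 with [125I]-CCK8(S), added at 200 pM, and competitor. Non-specific binding used L-364,718 (100 nM added). Bound tracer was filtered on GF/B and gamma-counted.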

| SMILES | Ki (CCKB receptor) [µM] | Ki (CCKA) [µM] | pKi (Mouse cortex) (CCKB receptor) | pKi (Guinea pig pancreas) (CCKA) |
| --- | --- | --- | --- | --- |
| CC(=O)N1[C@H](CC23CC4CC(CC(C4)C2)C3)C(=O)N(C)c2ccccc2C(=O)C[C@H]1C(=O)NCC(=O)O [Example 32, (3R,5S)-4-acetyl-3-(1-adamantyl)methyl-5-carboxymethylaminocarbonyl-1-methyl-2,7-dioxo-2,3,4,5,6,7-hexahydro-1H-1,4-benzodiazonine] | 5.01 | 10 |  |  |
| CC(=O)N1[C@@H](C(=O)NCC(=O)O)CC(=O)c2ccccc2N(Cc2ccccc2)C(=O)[C@@H]1CC12CC3CC(CC(C3)C1)C2 [Example 36, (3S,5R)-4-acetyl-3-(1-adamantyl)methyl-1-benzyl-5-carboxymethylaminocarbonyl-2,7-dioxo-2,3,4,5,6,7-hexahydro-1H-1,4-benzodiazonine] | 3.16 | 5.01 |  |  |
| COC(=O)CNC(=O)[C@@H]1CC(=O)c2ccccc2N(Cc2ccccc2)C(=O)[C@@H](CC23CC4CC(CC(C4)C2)C3)N1C(C)=O [Example 37, (3R,5S)-4-acetyl-3-(1-adamantyl)methyl-1-benzyl-5-methoxycarbonylmethylaminocarbonyl-2,7-dioxo-2,3,4,5,6,7-hexahydro-1H-1,4-benzodiazonine] | 1.58 | 6.31 |  |  |
| CC(=O)N1[C@H](CCC(C)C)C(=O)N(Cc2ccccc2)c2ccccc2C(=O)C[C@H]1C(=O)NCC(=O)O [Example 38, (3R,5S)-4-acetyl-1-benzyl-5-carboxymethylaminocarbonyl-3-(3,3-dimethyl)propyl-2,7-dioxo-2,3,4,5,6,7-hexahydro-1H-1,4-benzodiazonine] |  |  | 5.3 | 5.0 |
| CC(=O)N1[C@H](CC2CCCCCC2)C(=O)N(Cc2ccccc2)c2ccccc2C(=O)C[C@H]1C(=O)NCC(=O)O [Example 39, (3R,5S)-4-acetyl-1-benzyl-5-carboxymethylaminocarbonyl-3-cycloheptylmethyl-2,7-dioxo-2,3,4,5,6,7-hexahydro-1H-1,4-benzodiazonine] |  |  | 5.6 | 5.0 |
| CC(=O)N1[C@H](CC2CCCCC2)C(=O)N(Cc2ccccc2)c2ccccc2C(=O)C[C@H]1C(=O)NCC(=O)O [Example 40, (3R,5S)-4-acetyl-1-benzyl-5-carboxymethylaminocarbonyl-3-cyclohexylmethyl-2,7-dioxo-2,3,4,5,6,7-hexahydro-1H-1,4-benzodiazonine] |  |  | 5.4 | 4.7 |
| CC(=O)N1[C@H](CC23CC4CC(CC(C4)C2)C3)C(=O)N(Cc2ccccc2)c2ccccc2C(=O)C[C@H]1C(=O)NCC(=O)NS(C)(=O)=O [Example 41, (3R,5S)-4-acetyl-3-(1-adamantyl)methyl-1-benzyl-5-methanesulphonamidocarboxymethylaminocarbonyl-2,7-dioxo-2,3,4,5,6,7-hexahydro-1H-1,4-benzodiazonine] | 0.398 | 10 |  |  |
| CC(C)(C)OC(=O)CN1C(=O)CN(C(=O)OCc2ccccc2)CCC(=O)c2ccccc21 [Example 42, 4-benzyloxycarbonyl-1-tert-butyloxycarbonylmethyl-2,7-dioxo-2,3 4,5,6,7-hexahydro-1H-1,4-benzodiazonine] | 20 | 10 |  |  |
| CC(C)(C)OC(=O)CN1C(=O)CN(C(=O)Oc2ccccc2)CCC(=O)c2ccccc21 [Example 43] | 15.8 | 10 |  |  |
| CC1CCN(C(=O)Nc2ccc(Cl)c(Cl)c2)CC(=O)N(Cc2ccccc2)c2ccccc21 (stereo not drawn) [Example 44, 1-benzyl-4-(3,4-dichlorophenyi)carbamyl-7-methyl-2-oxo-2,3,4,5,6,7-hexahydro-1H-1,4-benzodiazonine] | 3.16 | 0.158 |  |  |
| CC1CCN(C(=O)Nc2ccc3ccccc3c2)CC(=O)N(Cc2ccccc2)c2ccccc21 (stereo not drawn) [Example 45, 1-benzyl-7-methyl-4-(2-naphthyl)carbamyl-2-oxo-2,3,4,5,6,7-hexahydro-1H-1,4-benzodiazonine] | 10 | 0.0794 |  |  |
| O=C(OCc1ccccc1)c1cccc(NC(=O)N2CCC(=O)c3ccccc3N(Cc3ccccc3)C(=O)C2)c1 [Example 46] | 10 | 3.98 |  |  |
| Cc1cccc(NC(=O)N2CCC(c3ccccc3)c3ccccc3N(Cc3ccccc3)C(=O)C2)c1 (stereo not drawn) [Example 50, 1-benzyl-7-phenyl-4-(3-methylphenyl)carbamyl-2-oxo-2,3,4,5,6,7-hexahydro-1H-1,4-benzodiazonine] |  |  | 5.8 | 5.9 |
| CCC1CCN(C(=O)Nc2cccc(C)c2)CC(=O)N(Cc2ccccc2)c2ccccc21 (stereo not drawn) [Example 51, 1-benzyl-7-ethyl-4-(3-methylphenyl)carbamyl-2-oxo-5,2,3,4,5,6,7-hexahydro-1H-1,4-benzodiazonine] | 3.16 | 0.794 |  |  |
| CCC1CCN(C(=O)Nc2ccc(Cl)c(Cl)c2)CC(=O)N(Cc2ccccc2)c2ccccc21 (stereo not drawn) [Example 52, 1-benzyl-7-ethyl-4-(3,4-dichlorophenyl)carbamyl-2-oxo-2,3,4,5,6,7-hexahydro-1H-1,4-benzodiazonine] | 10 | 0.2 |  |  |
| COc1cccc(NC(=O)N2CCCc3ccccc3N(CC(=O)OC(C)(C)C)C(=O)C2)c1 [Example 55, 1-tert-butyloxycarbonylmethyl-4-(3-methoxyphenyl)carbamyl-2-oxo-2,3,4,5,6,7-hexahydro-1H-1,4-benzodiazonine] | 10 | 1 |  |  |
| CC(=O)N1[C@H](CC23CC4CC(CC(C4)C2)C3)C(=O)N(Cc2ccc(F)cc2)c2ccccc2C(=O)C[C@H]1C(=O)NCC(=O)O [Example 58, (3R,5S)-4-acetyl-3-(1-adamantyl)methyl-1-(4-fluorobenzyl)-5-carboxymethylaminocarbonyl-2,7-dioxo-2,3,4,5,6,7-hexahydro-1H-1,4-benzodiazonine] | 2 | 7.94 |  |  |
| CC(=O)N1[C@H](CC23CC4CC(CC(C4)C2)C3)C(=O)N(Cc2ccccc2F)c2ccccc2C(=O)C[C@H]1C(=O)NCC(=O)O [Example 59, (3R,5S)-4-acetyl-3-(1-adamantyl)methyl-1-(2-fluorobenzyl)-5-carboxymethyaminocarbonyl-2,7-dioxo-2,3,4,5,6,7-hexahydro-1H-1,4-benzodiazonine] | 0.1 | 10 |  |  |
| CC(=O)N1[C@H](CC23CC4CC(CC(C4)C2)C3)C(=O)N(Cc2cccc(F)c2)c2ccccc2C(=O)C[C@H]1C(=O)NCC(=O)O [Example 60, (3R,5S)-4-acetyl-3-(1-adamantyl)methyl-1-(3-fluorobenzyl)-5-carboxymethylaminocarbonyl-2,7-dioxo-2,3,4,5,6,7-hexahydro-1H-1,4-benzodiazonine] | 0.2 | 10 |  |  |
| CC(=O)N1[C@H](CC23CC4CC(CC(C4)C2)C3)C(=O)N(Cc2ccccc2Cl)c2ccccc2C(=O)C[C@H]1C(=O)NCC(=O)O [Example 63, (3R,5S)-4-acetyl-3-(1-adamantyl)methyl-1-(2-chlorobenzyl)-5-carboxymethylaminocarbonyl-2,7-dioxo-2,3,4,5,6,7-hexahydro-1H-1,4-benzodiazonine] | 0.1 | 10 |  |  |
| CC(=O)N1[C@H](CC23CC4CC(CC(C4)C2)C3)C(=O)N(Cc2ccccc2F)c2ccccc2C(=O)C[C@H]1C(=O)N[C@@H](C)C(=O)O [Example 64, (3R,5S)-4-acetyl-3-(1-adamantyl)methyl-1-(2-fluorobenzyl)-5-[(1S)-carboxy]ethylaminocarbonyl-2,7-dioxo-2,3,4,5,6,7-hexahydro-1H-1,4-benzodiazonine] | 0.158 | 25.1 |  |  |
